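Where inhibition never reached the appropriate level, the endpoint shown equals the highest concentration tested. Otherwise, values were interpolated linearly from a five-concentration, 48-hour dose response in 96-well plates. At the GI50, growth is halved.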 Active and inactive are the calls of the source. Cut-off read from the data, not from the text of the source: active = GI50 up to about 1.1 µM and inactive = higher.
What was measured:
Assay in all cases: DTP human tumour cell line panel, 48 h
HCT-15 = system: HCT-15
SR = system: SR
NCI-H522 = system: NCI-H522
PC-3 = system: PC-3
OVCAR-5 = system: OVCAR-5
NCI-H23 = system: NCI-H23
Malme-3M = system: Malme-3M
SN12C = system: SN12C
SF-539 = system: SF-539
HT-29 = system: HT-29
HL-60 = system: HL-60
COLO 205 = system: COLO 205
HOP-62 = system: HOP-62
786-0 = system: 786-0
SK-MEL-2 = system: SK-MEL-2
SK-OV-3 = system: SK-OV-3
KM12 = system: KM12
SW-620 = system: SW-620
MDA-N = system: MDA-N

SMILES	GI50 (HCT-15) [µM]	GI50 (SR)	GI50 (NCI-H522)	GI50 (PC-3)	GI50 (OVCAR-5)	GI50 (NCI-H23)	GI50 (Malme-3M)	GI50 (SN12C)	GI50 (SF-539)	GI50 (HT-29)	GI50 (HL-60)	GI50 (COLO 205)	GI50 (HOP-62)	GI50 (786-0)	GI50 (SK-MEL-2)	GI50 (SK-OV-3)	GI50 (KM12)	GI50 (SW-620)	GI50 (MDA-N)
O=C(C(Cl)Cl)N(O)c1ccccc1OCc1ccccc1	44.2	22.9 µM (inactive)	25.6 µM (inactive)	27.8 µM (inactive)	> 100 µM (inactive)	> 100 µM (inactive)	81.8 µM (inactive)	49.2 µM (inactive)	31.3 µM (inactive)	17.2 µM (inactive)	27.6 µM (inactive)	17 µM (inactive)	> 100 µM (inactive)	83.2 µM (inactive)	80 µM (inactive)	> 100 µM (inactive)	28.2 µM (inactive)	24.8 µM (inactive)	–
Cc1ccc(-c2[nH]c(=O)n(C3OC(CO)C(O)C(O)C3O)c(=O)c2C#N)cc1 (configuration not stated)	> 100	95.3 µM (inactive)	> 100 µM (inactive)	> 100 µM (inactive)	> 100 µM (inactive)	> 100 µM (inactive)	–	> 100 µM (inactive)	> 100 µM (inactive)	> 100 µM (inactive)	> 100 µM (inactive)	> 100 µM (inactive)	> 100 µM (inactive)	> 100 µM (inactive)	> 100 µM (inactive)	> 100 µM (inactive)	> 100 µM (inactive)	> 100 µM (inactive)	–
CCCNC1=Nc2ccccc2NC(C)C1 (configuration not stated)	> 100	–	> 100 µM (inactive)	> 100 µM (inactive)	> 100 µM (inactive)	> 100 µM (inactive)	79.6 µM (inactive)	> 100 µM (inactive)	–	> 100 µM (inactive)	> 100 µM (inactive)	> 100 µM (inactive)	> 100 µM (inactive)	> 100 µM (inactive)	> 100 µM (inactive)	> 100 µM (inactive)	> 100 µM (inactive)	> 100 µM (inactive)	> 100 µM (inactive)
O=c1cccc(Cl)[nH]1	> 100	> 100 µM (inactive)	> 100 µM (inactive)	> 100 µM (inactive)	> 100 µM (inactive)	> 100 µM (inactive)	> 100 µM (inactive)	> 100 µM (inactive)	> 100 µM (inactive)	> 100 µM (inactive)	–	> 100 µM (inactive)	> 100 µM (inactive)	> 100 µM (inactive)	> 100 µM (inactive)	> 100 µM (inactive)	> 100 µM (inactive)	> 100 µM (inactive)	–
CC#CCCCC1(C)CCCNC1=S (configuration not stated)	> 10	> 10 µM (inactive)	> 10 µM (inactive)	> 10 µM (inactive)	> 10 µM (inactive)	> 10 µM (inactive)	> 10 µM (inactive)	> 10 µM (inactive)	> 10 µM (inactive)	> 10 µM (inactive)	> 10 µM (inactive)	–	–	> 10 µM (inactive)	> 10 µM (inactive)	> 10 µM (inactive)	> 10 µM (inactive)	> 10 µM (inactive)	–
OC(c1ccccc1)C(F)(F)c1nc2ccccc2o1 (configuration not stated)	> 100	> 100 µM (inactive)	–	> 100 µM (inactive)	–	> 100 µM (inactive)	–	–	> 100 µM (inactive)	> 100 µM (inactive)	> 100 µM (inactive)	> 100 µM (inactive)	> 100 µM (inactive)	> 100 µM (inactive)	> 100 µM (inactive)	> 100 µM (inactive)	> 100 µM (inactive)	> 100 µM (inactive)	–
c1ccc2sc(C3(N4CCCCC4)CCCC3)cc2c1	5.92	0.838 µM (active)	11.4 µM (inactive)	–	11 µM (inactive)	4.06 µM (inactive)	13.8 µM (inactive)	13.5 µM (inactive)	16.1 µM (inactive)	3.24 µM (inactive)	4.69 µM (inactive)	5.53 µM (inactive)	15 µM (inactive)	9.93 µM (inactive)	–	15.9 µM (inactive)	7.01 µM (inactive)	8.02 µM (inactive)	17.4 µM (inactive)
O=C1/C(=C/C=C/c2ccccc2)CCC1CNc1ccccc1 (configuration not stated)	18.4	3.52 µM (inactive)	9.62 µM (inactive)	36 µM (inactive)	> 65.8 µM (inactive)	27.7 µM (inactive)	58.6 µM (inactive)	23.2 µM (inactive)	> 54.5 µM (inactive)	24.7 µM (inactive)	4.07 µM (inactive)	28.9 µM (inactive)	> 100 µM (inactive)	16.6 µM (inactive)	–	> 100 µM (inactive)	14.9 µM (inactive)	18.4 µM (inactive)	–
Nc1ccc(SC23CC4CC(CC(C4)C2)C3)cc1	> 100	> 100 µM (inactive)	> 100 µM (inactive)	> 100 µM (inactive)	> 100 µM (inactive)	> 100 µM (inactive)	> 100 µM (inactive)	> 100 µM (inactive)	> 100 µM (inactive)	> 100 µM (inactive)	> 100 µM (inactive)	> 100 µM (inactive)	> 100 µM (inactive)	> 100 µM (inactive)	> 100 µM (inactive)	> 100 µM (inactive)	> 100 µM (inactive)	> 100 µM (inactive)	–
O=C(O)C(NCc1ccccc1)C(NCc1ccccc1)C(=O)O (configuration not stated)	> 100	> 100 µM (inactive)	> 100 µM (inactive)	–	–	> 100 µM (inactive)	> 100 µM (inactive)	> 100 µM (inactive)	> 100 µM (inactive)	> 100 µM (inactive)	> 100 µM (inactive)	> 100 µM (inactive)	> 100 µM (inactive)	> 100 µM (inactive)	> 100 µM (inactive)	> 100 µM (inactive)	> 100 µM (inactive)	> 100 µM (inactive)	> 100 µM (inactive)
Cn1c2ccccc2c(=O)c2c(O)cc3c(c21)C=CC1(CCCCC1)O3	> 10	–	> 10 µM (inactive)	> 10 µM (inactive)	7.18 µM (inactive)	> 10 µM (inactive)	> 10 µM (inactive)	> 10 µM (inactive)	> 10 µM (inactive)	3.85 µM (inactive)	–	> 10 µM (inactive)	> 10 µM (inactive)	9.95 µM (inactive)	> 10 µM (inactive)	> 10 µM (inactive)	1.62 µM (inactive)	> 10 µM (inactive)	> 10 µM (inactive)
CC1C(=O)OCC2=CCN3CCC(OC(=O)C(C)C1(C)O)C23 (configuration not stated)	> 100	–	> 100 µM (inactive)	> 100 µM (inactive)	> 100 µM (inactive)	> 100 µM (inactive)	> 100 µM (inactive)	> 100 µM (inactive)	> 100 µM (inactive)	> 100 µM (inactive)	> 100 µM (inactive)	> 100 µM (inactive)	–	> 100 µM (inactive)	> 100 µM (inactive)	> 100 µM (inactive)	> 100 µM (inactive)	> 100 µM (inactive)	> 100 µM (inactive)

— ChEMBL document CHEMBL1201862, “PubChem BioAssay data set” (2004)
